In US10485236B2, “Triazole derivatives, intermediates thereof and their use as fungicides” (Bayer CropScience Aktiengesellschaft, priority 2015, dated 2019):

Experiments:
Sphaerotheca fuliginea [1] = experiment: Example D: in vivo preventive test on Sphaerotheca fuliginea (powdery mildew on cucurbits); details: Podosphaera fuliginea, 360 h; 500 ppm of active ingredient; gherkin plants, preventive spray; evaluated 15 days after inoculation; read-out: efficacy
Description: Example D: In Vivo Preventive Test on Sphaerotheca fuliginea (Powdery Mildew on Cucurbits) [table] The active ingredients are made soluble and homogenized in a mixture of Dimethyl sulfoxide/Acetone//Tween® 80 and then diluted in water to the desired concentration. The young plants of gherkin are treated by spraying the active ingredient prepared as described above. Control plants are treated only with an aqueous solution of Acetone/Dimethyl sulfoxide/Tween® 80. After 24 hours, the plants are contaminated by spraying the leaves with an aqueous suspension of Sphaerotheca fuliginea spores. The contaminated gherkin plants are incubated for 72 hours at 18° C. and at 100% relative humidity and then for 12 days at 20° C. and at 70-80% relative humidity. The test is evaluated 15 days after the inoculation. 0% means an efficacy which corresponds to that of the control plants while an efficacy of 100% means that no disease is observed.

Sphaerotheca fuliginea [2] = experiment: Example M: in vivo preventive test on Sphaerotheca (cucumbers); comparison of phenoxy-pyridyl compounds vs. known phenoxy-phenyl compounds; details: Podosphaera fuliginea, 168 h, rate of application 10 ppm, evaluated 7 days after inoculation, read-out: Efficacy in %
Description: Example M: In Vivo Preventive Test on Sphaerotheca (Cucumbers); Comparison of Phenoxy-pyridyl Compounds According to the Invention Vs. Known Phenoxy-phenyl Compounds [table] To produce a suitable preparation of active compound, 1 part by weight of active compound is mixed with the above stated amounts of solvent and emulsifier, and the concentrate is diluted with water to the desired concentration. To test for preventive activity, young plants are sprayed with the preparation of active compound at the stated rate of application. After the spray coating has dried on, the plants are inoculated with an aqueous spore suspension of Sphaerotheca fuliginea. The plants are then placed in a greenhouse at approximately 23° C. and a relative atmospheric humidity of approximately 70%. The test is evaluated 7 days after the inoculation. 0% means an efficacy which corresponds to that of the untreated control, while an efficacy of 100% means that no disease is observed. [table]

[3] = system: Blumeria graminis f.sp. hordei; experiment: Example I: in vivo preventive Blumeria test (barley); details: 168 h, 500 ppm of active ingredient, preventive spray, evaluated 7 days after inoculation, read-out: efficacy
Description: Example I: In Vivo Preventive Blumeria Test (Barley) [table] To produce a suitable preparation of active compound, 1 part by weight of active compound or active compound combination is mixed with the stated amounts of solvent and emulsifier, and the concentrate is diluted with water to the desired concentration. To test for preventive activity, young plants are sprayed with the preparation of active compound or active compound combination at the stated rate of application. After the spray coating has been dried, the plants are dusted with spores of Blumeria graminis f.sp. hordei. The plants are placed in the greenhouse at a temperature of approximately 18° C. and a relative atmospheric humidity of approximately 80% to promote the development of mildew pustules. The test is evaluated 7 days after the inoculation. 0% means an efficacy which corresponds to that of the untreated control, while an efficacy of 100% means that no disease is observed.

Puccinia recondita = experiment: Example B: in vivo preventive test on Puccinia recondita (brown rust on wheat); details: 264 h, 500 ppm of active ingredient, wheat plants, preventive spray, evaluated 11 days after inoculation, read-out: efficacy
Description: Example B: In Vivo Preventive Test on Puccinia recondita (Brown Rust on Wheat) [table] The active ingredients are made soluble and homogenized in a mixture of Dimethyl sulfoxide/Acetone//Tween® 80 and then diluted in water to the desired concentration. The young plants of wheat are treated by spraying the active ingredient prepared as described above. Control plants are treated only with an aqueous solution of Acetone/Dimethyl sulfoxide/Tween® 80. After 24 hours, the plants are contaminated by spraying the leaves with an aqueous suspension of Puccinia recondita spores. The contaminated wheat plants are incubated for 24 hours at 20° C. and at 100% relative humidity and then for 10 days at 20° C. and at 70-80% relative humidity. The test is evaluated 11 days after the inoculation. 0% means an efficacy which corresponds to that of the control plants while an efficacy of 100% means that no disease is observed.

Septoria tritici = experiment: Example L: in vivo preventive Septoria tritici test (wheat); details: Zymoseptoria tritici, 504 h, 500 ppm of active ingredient, preventive spray, evaluated 21 days after inoculation, read-out: efficacy
Description: Example L: In Vivo Preventive Septoria tritici Test (Wheat) [table] To produce a suitable preparation of active compound, 1 part by weight of active compound or active compound combination is mixed with the stated amounts of solvent and emulsifier, and the concentrate is diluted with water to the desired concentration. To test for preventive activity, young plants are sprayed with the preparation of active compound or active compound combination at the stated rate of application. After the spray coating has been dried, the plants are sprayed with a spore suspension of Septoria tritici. The plants remain for 48 hours in an incubation cabinet at approximately 20° C. and a relative atmospheric humidity of approximately 100% and afterwards for 60 hours at approximately 15° C. in a translucent incubation cabinet at a relative atmospheric humidity of approximately 100%. The plants are placed in the greenhouse at a temperature of approximately 15° C. and a relative atmospheric humidity of approximately 80%. The test is evaluated 21 days after the inoculation. 0% means an efficacy which corresponds to that of the untreated control, while an efficacy of 100% means that no disease is observed.

Botrytis cinerea = experiment: Example A: in vivo preventive test on Botrytis cinerea (grey mould), gherkin; details: gherkin plants, preventive spray, evaluated 4 to 5 days after inoculation, read-out: efficacy
Description: Example A: In Vivo Preventive Test on Botrytis cinerea (Grey Mould) [table] The active ingredients are made soluble and homogenized in a mixture of Dimethyl sulfoxide/Acetone//Tween® 80 and then diluted in water to the desired concentration. The young plants of gherkin are treated by spraying the active ingredient prepared as described above. Control plants are treated only with an aqueous solution of Acetone/Dimethyl sulfoxide/Tween® 80. After 24 hours, the plants are contaminated by spraying the leaves with an aqueous suspension of Botrytis cinerea spores. The contaminated gherkin plants are incubated for 4 to 5 days at 17° C. and at 90% relative humidity. The test is evaluated 4 to 5 days after the inoculation. 0% means an efficacy which corresponds to that of the control plants while an efficacy of 100% means that no disease is observed.

SMILES | pest or weed control at 500 ppm (Sphaerotheca fuliginea [1]) [%] | pest or weed control at 10 ppm (Sphaerotheca fuliginea [2]) [%] | pest or weed control at 500 ppm [3] [%] | pest or weed control at 500 ppm (Puccinia recondita) [%] | pest or weed control at 500 ppm (Septoria tritici) [%] | pest or weed control (Botrytis cinerea) [%]
O=C(Cn1cncn1)c1ccc(Oc2ccc(Cl)cc2)nc1C(F)(F)F [VII.01, 1-[6-(4-chlorophenoxy)-2-(trifluoromethyl)-3-pyridyl]-2-(1,2,4-triazol-1-yl)ethanone] | 90 to 100 | 78 | 90 to 100 | 90 to 100 | 90 to 100 | –
CC(O)(Cn1cncn1)c1cnc(Oc2ccccc2)cc1Cl (stereo not shown) [I.05] | 90 to 100 | 71 | 90 to 100 | 90 to 100 | 90 to 100 | 90 to 100
CC(O)(Cn1cncn1)c1ccc(Oc2ccc(S(F)(F)(F)(F)F)cc2)nc1Cl (stereo not shown) [I.35] | 90 to 100 | 100 | 90 to 100 | 90 to 100 | 90 to 100 | –
C[C@@](O)(Cn1cncn1)c1cnc(Oc2ccc(Cl)cc2)cc1C(F)(F)F [I.45] | 90 to 100 | 99 | 90 to 100 | 90 to 100 | 90 to 100 | 90 to 100
CC(O)(Cn1cncn1)c1cnc(Oc2ccc(Cl)cc2)cc1C(F)(F)F (stereo not shown) [I.02, 2-[6-(4-chlorophenoxy)-4-(trifluoromethyl)-3-pyridyl]-1-(1,2,4-triazol-1-yl)propan-2-ol] | 90 to 100 | – | 90 to 100 | 90 to 100 | 90 to 100 | –
OC(Cn1cncn1)c1cnc(Oc2ccc(C(F)(F)F)cc2)cc1C(F)(F)F (stereo not shown) [I.47] | 90 to 100 | 100 | 90 to 100 | 90 to 100 | 90 to 100 | 80 to 89
Cc1ccc(Oc2ccc(C(O)Cn3cncn3)c(Cl)n2)cc1Cl (stereo not shown) [I.16] | 90 to 100 | 77 | – | 80 to 89 | – | 90 to 100
OC(Cn1cncn1)c1ccc(Oc2ccc(Cl)cc2)nc1Cl (stereo not shown) [I.14] | 90 to 100 | 83 | 90 to 100 | 90 to 100 | – | 90 to 100
OC(Cn1cncn1)c1ccc(Oc2ccc(Cl)cc2)nc1C(F)(F)F (stereo not shown) [I.03, 1-[6-(4-chlorophenoxy)-2-(trifluoromethyl)-3-pyridyl]-2-(1,2,4-triazol-1-yl)ethanol] | 90 to 100 | – | – | 90 to 100 | 90 to 100 | 90 to 100
CC(O)(Cn1cncn1)c1ccc(Oc2ccc(C(F)F)cc2)nc1Cl (stereo not shown) [I.39] | 90 to 100 | 97 | 90 to 100 | 90 to 100 | 70 to 79 | 90 to 100
CC(O)(Cn1cncn1)c1ccc(Oc2ccc(Cl)cc2)nc1C(F)(F)F (stereo not shown) [I.01, 2-[6-(4-chlorophenoxy)-2-(trifluoromethyl)-3-pyridyl]-1-(1,2,4-triazol-1-yl)propan-2-ol] | 90 to 100 | 100 | 90 to 100 | 90 to 100 | 90 to 100 | 90 to 100
OC(Cn1cncn1)c1cnc(Oc2ccc(S(F)(F)(F)(F)F)cc2)cc1C(F)(F)F (stereo not shown) [I.36] | 90 to 100 | 100 | 90 to 100 | 90 to 100 | 90 to 100 | –
OC(Cn1cncn1)(c1ccc(Oc2ccc(Cl)cc2)nc1C(F)(F)F)C1CC1 (stereo not shown) [I.91, 1-[6-(4-chlorophenoxy)-2-(trifluoromethyl)-3-pyridyl]-1-cyclopropyl-2-(1,2,4-triazol-1-yl)ethanol] | 90 to 100 | – | 90 to 100 | 90 to 100 | 80 to 89 | 90 to 100
